Results from US8487093B2, “β-lactamase inhibitors” (Merck Sharp & Dohme Corp., priority 2008, dated 2013).
Where two headings read alike, the source gives them in different places.

Assays:
KPC-2 (K. pneumoniae) = KPC-2 (K. pneumoniae) (Klebsiella pneumoniae, UniProt Q9F663); assay: biochemical
AmpC (P. aeruginosa) = AmpC (P. aeruginosa) (Pseudomonas aeruginosa (strain ATCC 15692 / DSM 22644 / CIP 104116 / JCM 14847 / LMG 12228 / 1C / PRS 101 / PAO1), UniProt P24735); assay: biochemical
Method: The Class C enzyme activities were measured in the presence of the test inhibitor in spectrophotometric assay against the commercially available substrate, nitrocefin. The enzyme AmpC (P. aeruginosa.), and the substrate, were dissolved in 100 mM KH2PO4 buffer (pH 7). The buffer also contains 0.005% BSA. The test inhibitor was dissolved in DMSO and diluted 1:20 in the assay, resulting in a final concentration range of 50 μM to 0.0002 μM. In a 96-well microplate, the test inhibitor was incubated with the beta-lactamase enzyme for 40 minutes at ambient temperature, the substrate solution was added, and the incubation continued for another 40 minutes. […] The IC50 value was determined from semi logarithmic plots of enzyme inhibition versus inhibitor concentration, with a curve generated using a 4-parameter fit.

[1] = Table 3, read-out: K.p. KPC-2 IC50
[2] = Table 3, read-out: P.a. AmpC IC50

Sequence of KPC-2 (K. pneumoniae) (Q9F663 25-293 limits assumed): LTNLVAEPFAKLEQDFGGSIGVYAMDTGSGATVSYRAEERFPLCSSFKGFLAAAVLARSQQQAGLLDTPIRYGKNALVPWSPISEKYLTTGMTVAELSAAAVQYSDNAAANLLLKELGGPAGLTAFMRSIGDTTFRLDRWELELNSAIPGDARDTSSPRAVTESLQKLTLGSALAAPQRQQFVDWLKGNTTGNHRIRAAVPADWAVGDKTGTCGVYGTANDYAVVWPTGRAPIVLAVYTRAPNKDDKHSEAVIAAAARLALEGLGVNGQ
Sequence of AmpC (P. aeruginosa) (P24735 27-397): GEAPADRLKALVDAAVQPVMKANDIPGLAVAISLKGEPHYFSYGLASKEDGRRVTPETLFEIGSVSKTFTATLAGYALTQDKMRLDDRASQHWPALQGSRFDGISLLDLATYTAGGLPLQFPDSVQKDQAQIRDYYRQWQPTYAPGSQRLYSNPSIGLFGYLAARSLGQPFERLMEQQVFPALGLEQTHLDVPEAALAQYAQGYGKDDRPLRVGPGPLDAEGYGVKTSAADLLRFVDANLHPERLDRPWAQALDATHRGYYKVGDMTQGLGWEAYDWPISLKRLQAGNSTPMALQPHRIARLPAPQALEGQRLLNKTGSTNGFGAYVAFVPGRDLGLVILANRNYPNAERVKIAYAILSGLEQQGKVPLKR

Structure (SMILES)	IC50 (KPC-2 (K. pneumoniae); [1]) [nM]	IC50 (AmpC (P. aeruginosa)) [nM]	IC50 (AmpC (P. aeruginosa); [2]) [nM]	IC50 (KPC-2 (K. pneumoniae); K.p. KPC-2 IC50, Table 3) [nM]
O=C(N[C@H]1CCN(C2CCNCC2)C1=O)[C@@H]1CC[C@@H]2CN1C(=O)N2OS(=O)(=O)O [Example 33]	21	620		
O=C(N[C@@H]1CCN(C2CCNCC2)C1=O)[C@@H]1CC[C@@H]2CN1C(=O)N2OS(=O)(=O)O [Example 34]	280	45		
O=C(N[C@@H]1CCCNC[C@@H]1F)[C@@H]1CC[C@@H]2CN1C(=O)N2OS(=O)(=O)O [Example 35]	150		13	
O=C(N[C@H]1CCCNC[C@H]1F)[C@@H]1CC[C@@H]2CN1C(=O)N2OS(=O)(=O)O [Example 36]	130		18	
O=C(NCC1(F)CNC1)[C@@H]1CC[C@@H]2CN1C(=O)N2OS(=O)(=O)O [Example 37]	120		40	
O=C(NCC1CCCN1)[C@@H]1CC[C@@H]2CN1C(=O)N2OS(=O)(=O)O (some centres unmarked) [Example 38]	120		250	
O=C(NCC1CCCCN1)[C@@H]1CC[C@@H]2CN1C(=O)N2OS(=O)(=O)O (some centres unmarked) [Example 39]	190		530	
O=C(NCC1CCNCC1)[C@@H]1CC[C@@H]2CN1C(=O)N2OS(=O)(=O)O [Example 40]			30	77
O=C(NC(CO)C1CCNCC1)[C@@H]1CC[C@@H]2CN1C(=O)N2OS(=O)(=O)O (some centres unmarked) [Example 41]	320	700		
O=C(NC[C@@H]1CNCCCO1)[C@@H]1CC[C@@H]2CN1C(=O)N2OS(=O)(=O)O [Example 42]		100		110
O=C(NC[C@H]1CNCCCO1)[C@@H]1CC[C@@H]2CN1C(=O)N2OS(=O)(=O)O [Example 43]		15		100
O=C(NCCC1CCNCC1)[C@@H]1CC[C@@H]2CN1C(=O)N2OS(=O)(=O)O [Example 44]	45		11	
O=C(NCCN1CCCCC1)[C@@H]1CC[C@@H]2CN1C(=O)N2OS(=O)(=O)O [Example 45]	150		180	
O=C(NCCN1CCNCC1)[C@@H]1CC[C@@H]2CN1C(=O)N2OS(=O)(=O)O [Example 46]	96		42	
O=C(NC1C2CNCC21)[C@@H]1CC[C@@H]2CN1C(=O)N2OS(=O)(=O)O (some centres unmarked) [Example 47]	10000		720	
CN(C(=O)[C@@H]1CC[C@@H]2CN1C(=O)N2OS(=O)(=O)O)C1CCNCC1 [Example 48]	2500		290	
NCC1CCCCN1C(=O)[C@@H]1CC[C@@H]2CN1C(=O)N2OS(=O)(=O)O (some centres unmarked) [Example 49]	780		7500	
NC1CCN(C(=O)[C@@H]2CC[C@@H]3CN2C(=O)N3OS(=O)(=O)O)CC1 [Example 50]	8		820	
O=C([C@@H]1CC[C@@H]2CN1C(=O)N2OS(=O)(=O)O)N1CCNCC1 [Example 51]	520		2200	
O=C([C@@H]1CC[C@@H]2CN1C(=O)N2OS(=O)(=O)O)N1CC2(CCNCC2)C1 [Example 52]	1000	590		

Structure (SMILES)	IC50 (KPC-2 (K. pneumoniae); [1]) [nM]	IC50 (AmpC (P. aeruginosa)) [nM]	IC50 (AmpC (P. aeruginosa); [2]) [nM]	IC50 (KPC-2 (K. pneumoniae); K.p. KPC-2 IC50, Table 3) [nM]
O=C([C@@H]1CC[C@@H]2CN1C(=O)N2OS(=O)(=O)O)N1CC2CNCC2C1 (some centres unmarked) [Example 53]	33	1000		
N[C@@H]1CCN(C(=O)[C@@H]2CC[C@@H]3CN2C(=O)N3OS(=O)(=O)O)C1 [Example 54]	3200		840	
N[C@H]1CCN(C(=O)[C@@H]2CC[C@@H]3CN2C(=O)N3OS(=O)(=O)O)C1 [Example 55]	1500		1400	
CN(C)C1CCN(C(=O)[C@@H]2CC[C@@H]3CN2C(=O)N3OS(=O)(=O)O)C1 (some centres unmarked) [Example 56]	1600		270	
NCc1ccc(NC(=O)[C@@H]2CC[C@@H]3CN2C(=O)N3OS(=O)(=O)O)cc1 [Example 57]	72		20	
NCc1cccc(NC(=O)[C@@H]2CC[C@@H]3CN2C(=O)N3OS(=O)(=O)O)c1 [Example 58]	104	34		
NCc1ccccc1NC(=O)[C@@H]1CC[C@@H]2CN1C(=O)N2OS(=O)(=O)O [Example 59]	109	292		
CNCc1ccc(NC(=O)[C@@H]2CC[C@@H]3CN2C(=O)N3OS(=O)(=O)O)cc1 [Example 60]	56		18	
CNCc1cccc(NC(=O)[C@@H]2CC[C@@H]3CN2C(=O)N3OS(=O)(=O)O)c1 [Example 61]	78	22		
CN(C)Cc1ccc(NC(=O)[C@@H]2CC[C@@H]3CN2C(=O)N3OS(=O)(=O)O)cc1 [Example 62]	54		18	
O=C(Nc1ccc(CN2CCCC2)cc1)[C@@H]1CC[C@@H]2CN1C(=O)N2OS(=O)(=O)O [Example 63]	85		22	
O=C(Nc1ccc2c(c1)CNC2)[C@@H]1CC[C@@H]2CN1C(=O)N2OS(=O)(=O)O [Example 65]	60		16	
O=C(Nc1ccc2c(c1)CCN2)[C@@H]1CC[C@@H]2CN1C(=O)N2OS(=O)(=O)O [Example 66]	41		56	
O=C(O)c1ccc(NC(=O)[C@@H]2CC[C@@H]3CN2C(=O)N3OS(=O)(=O)O)cc1 [Example 67]	10		11	
NC(=O)c1ccc(NC(=O)[C@@H]2CC[C@@H]3CN2C(=O)N3OS(=O)(=O)O)cc1 [Example 68]	30		7	
NS(=O)(=O)c1ccc(NC(=O)[C@@H]2CC[C@@H]3CN2C(=O)N3OS(=O)(=O)O)cc1 [Example 69]	22		7	
NC(=O)c1cccc(NC(=O)[C@@H]2CC[C@@H]3CN2C(=O)N3OS(=O)(=O)O)c1 [Example 70]	26	3		
O=C(Nc1cccnc1)[C@@H]1CC[C@@H]2CN1C(=O)N2OS(=O)(=O)O [Example 71]	42	37		
O=C(Nc1ccccn1)[C@@H]1CC[C@@H]2CN1C(=O)N2OS(=O)(=O)O [Example 72]	36		1.2	
O=C(Nc1cc(N2CCCC2)nc(N2CCCC2)c1)[C@@H]1CC[C@@H]2CN1C(=O)N2OS(=O)(=O)O [Example 73]	130		515	

Structure (SMILES)	IC50 (KPC-2 (K. pneumoniae); [1]) [nM]	IC50 (AmpC (P. aeruginosa)) [nM]	IC50 (AmpC (P. aeruginosa); [2]) [nM]	IC50 (KPC-2 (K. pneumoniae); K.p. KPC-2 IC50, Table 3) [nM]
Nc1cccc(NC(=O)[C@@H]2CC[C@@H]3CN2C(=O)N3OS(=O)(=O)O)n1 [Example 74]	11		8	
CN(C)c1ccnc(NC(=O)[C@@H]2CC[C@@H]3CN2C(=O)N3OS(=O)(=O)O)c1 [Example 75]	410		3	
NCc1ccnc(NC(=O)[C@@H]2CC[C@@H]3CN2C(=O)N3OS(=O)(=O)O)c1 [Example 76]	1300		2	
NCc1ccc(NC(=O)[C@@H]2CC[C@@H]3CN2C(=O)N3OS(=O)(=O)O)nc1 [Example 77]	42		3	
O=C(Nc1cc(C2CCNCC2)ccn1)[C@@H]1CC[C@@H]2CN1C(=O)N2OS(=O)(=O)O [Example 78]	470		0.8	
O=C(Nc1cccc(C2CCNCC2)n1)[C@@H]1CC[C@@H]2CN1C(=O)N2OS(=O)(=O)O [Example 79]	24		270	
O=C(Nc1ccc(N2CCNCC2)cn1)[C@@H]1CC[C@@H]2CN1C(=O)N2OS(=O)(=O)O [Example 80]	15		2	
O=C(Nc1ccc(N2CCOCC2)cn1)[C@@H]1CC[C@@H]2CN1C(=O)N2OS(=O)(=O)O [Example 81]	17		5	
O=C(Nc1ccc(N2CCCC2)cn1)[C@@H]1CC[C@@H]2CN1C(=O)N2OS(=O)(=O)O [Example 82]	10		4	
O=C(Nc1cnccn1)[C@@H]1CC[C@@H]2CN1C(=O)N2OS(=O)(=O)O [Example 83]	58		6	
O=C(Nc1ccncn1)[C@@H]1CC[C@@H]2CN1C(=O)N2OS(=O)(=O)O [Example 84]	55		0.8	
O=C(Nc1ccnc(N2CCNCC2)n1)[C@@H]1CC[C@@H]2CN1C(=O)N2OS(=O)(=O)O [Example 85]	20		260	
Cn1ccnc1NC(=O)[C@@H]1CC[C@@H]2CN1C(=O)N2OS(=O)(=O)O [Example 86]	135		240	
CN1CCN=C1NC(=O)[C@@H]1CC[C@@H]2CN1C(=O)N2OS(=O)(=O)O [Example 87]	840		200	
O=C(Nc1nccs1)[C@@H]1CC[C@@H]2CN1C(=O)N2OS(=O)(=O)O [Example 88]	36		1.8	
O=C(Nc1nc2c(s1)CNCC2)[C@@H]1CC[C@@H]2CN1C(=O)N2OS(=O)(=O)O [Example 89]	39		10	
O=C(O[C@H]1CCCNCC1)[C@@H]1CC[C@@H]2CN1C(=O)N2OS(=O)(=O)O [Example 91]	6		83	
O=C(O[C@@H]1CCCNCC1)[C@@H]1CC[C@@H]2CN1C(=O)N2OS(=O)(=O)O [Example 92]	6400		33000	
